# Data from US20260152468A1, “NOVEL CERAMIDE, PREPARATION METHOD THEREFOR, AND USE THEREOF” (SHENZHEN DIKEMAN BIOTECHNOLOGY CO., LTD., priority 2022, published 2026).
# Tests used:
# [1] = system: AQP3 (aquaporin 3) expression in HaCat cells; experiment: Moisturizing efficacy by AQP3 cell assay; format: cell-based, human; conditions: 2.5 mmol/L
# Procedure: Aquaporin 3 (AQP3) is a transporter factor responsible for transport of water, glycerol and urea on cell membrane, which is mainly expressed in keratinocytes and skin fibroblasts. AQP3 is not only involved in skin hydration and barrier function, but also plays an important role in skin damage, repair and healing, and is an important guarantee for maintenance of normal skin morphology and function.
# The HaCat cells were seeded in a 96-well plate at a density of 1×10^4 cells/well and placed in an incubator overnight to allow cell adhesion. After 24 hours of incubation, the supernatant was discarded, and 100 μL of samples (i.e., the product obtained in Example 1) at different concentrations diluted with DMEM medium and DMEM medium free of the samples as a negative control group were added into the plate, each group in triplicate, followed by incubating under an atmosphere of 5% CO2 expressed by mass fraction at 37° C. At 2 hours after administration, […] LPS was added into both lipopolysaccharide model groups and experimental groups and then co-incubated for 24 hours. After completing the reaction, 50 μL of the cell supernatant was taken and detected for the AQP3 gene expression in the cells using a AQP3 assay kit.
# [2] = system: human keratinocytes (HaCaT) cells; experiment: Cell proliferation and viability by MTT assay; format: cell-based
# Procedure: Cell proliferation and viability as detected by methylthiazolyldiphenyl-tetrazoliun bromide (MTT) assay: human keratinocytes (HaCaT) cells were seed in a 96-well plate at a cell density of 1×10^4 cells/well and placed in an incubator overnight. After 24 hours of incubation, the supernatant was discarded and 100 μL of culture medium containing samples (i.e., the product obtained in Example 1) at different concentrations or blank control (culture medium only) was added into the cells, and incubated for additional 24 hours, followed by removing the culture medium, adding 100 μL of MTT to each well, measuring the absorbance at 450 nm, and calculating the cell viability as: Cell viability=Adosing/Ablank×100%.
# [3] = system: interleukin-6 (IL-6) cytokine expression in B16 murine melanoma cells; experiment: Anti-inflammatory repair efficacy, LPS-induced cell assay (IL-6 ELISA kit); format: cell-based; conditions: 1 mmol/L
# Procedure: B16 murine melanoma cells were seeded in a 96-well plate at a cell density of 1×10^4 cells/well and placed in an incubator overnight to allow cell adhesion. After 24 hours of incubation, the supernatant was discarded, and 100 μL of samples (i.e., the product obtained in Example 1) at different concentrations diluted with DMEM medium and DMEM culture medium free of the samples as a negative control group were added into the cells, each group in triplicate, followed by incubating under an atmosphere of 5% CO2 expressed by mass fraction at 37° C. At 2 hours after administration, 10 μg/mL LPS was added into both lipopolysaccharide model groups and experimental groups and then co-incubated for 24 hours. After the reaction, 50 μL of the cell supernatant was taken and detected for IL-6 gene expression using a IL-6 ELISA kit.
Substance,"increase of expression level of AQP3, comparison (FIG. 8) [1]","abilities of cell healing and tissue-repairing (cell proliferation and viability assay, FIGS. 1-3) [2]","inhibition of expression of IL-6 inflammatory factors, comparison (FIG. 5) [3]"
ceramide 3B,effectively increase the expression level of AQP3,relatively good abilities of cell healing and tissue-repairing,effectively inhibit the expression of IL-6 inflammatory factors
ceramide 3,effectively increase the expression level of AQP3,–,effectively inhibit the expression of IL-6 inflammatory factors
